Like-named read-outs stand apart in the source and are kept apart here.
Legend:
[1] = target: recombinant SARS-CoV-2 Main protease (Mpro) (Severe acute respiratory syndrome coronavirus 2 (2019-nCoV) (SARS-CoV-2), UniProt P0DTD1); test: Cov Mpro Biochemical IC50 Assay
[2] = test system: SARS-CoV-2-NLuc; test: microbe, parasite or virus in culture; format: cell-based, SARS Coronavirus 2
[3] = recombinant SARS-CoV-2 Mpro, fluorogenic peptide substrate, read-out: MPro IC50
[4] = Severe acute respiratory syndrome coronavirus, 48 h, read-out: MPro EC50
[5] = Severe acute respiratory syndrome coronavirus, 48 h; read-out: MPro EC50
[6] = recombinant SARS-CoV-2 Mpro 7.5 nM, fluorogenic peptide substrate 40 μM, read-out: MPro IC50

| SMILES | IC50 [1, 3] | EC50 [2, 4] | IC50 [1, 6] | other results |
| --- | --- | --- | --- | --- |
| COc1ccc(F)c(-c2ccc3c(=O)n(-c4cncc5ccccc45)c(=O)[nH]c3c2)c1 [Example 254] | 107 nM | 277 nM |  |  |
| CC(C)Oc1cncc(-n2c(=O)[nH]c3cc(-c4ccccc4Cl)sc3c2=O)c1 [Example 382] | 4600 nM | 208 nM |  |  |
| CCOc1ccc(Cl)c(-c2ccc3c(=O)n(-c4cncc5ccccc45)c(=O)[nH]c3c2)c1 [Example 300] | 148 nM | 60.5 nM |  |  |
| Cn1nc(-c2cccc(Cl)c2-c2ccc3c(=O)n(-c4cncc5ccccc45)c(=O)[nH]c3c2)c2ccccc21 [Example 263] | 88.5 nM | 38.1 nM |  |  |
| O=c1[nH]c2cc(-c3ccccc3C3CC3)ccc2c(=O)n1-c1cncc2ccccc12 [Example 45] |  |  |  | IC50 ([1]; MPro IC50, recombinant SARS-CoV-2 Mpro, fluorogenic peptide substrate): 1710 nM; EC50 [2, 5]: 1220 nM |
| Cn1cnc(Cn2c(=O)n(-c3cncc4ccccc34)c(=O)c3sc(-c4ccccc4Cl)cc32)n1 [Example 153, 6-(2-chlorophenyl)-3-(4-isoquinolyl)-1-[(1-methyl-1,2,4-triazol-3-yl)methyl]thieno[3,2-d]pyrimidine-2,4-dione] | 18.5 nM | 66.1 nM |  |  |
| COc1cc(-c2cc3[nH]c(=O)n(-c4cncc5c4c(C)nn5C)c(=O)c3s2)c(Cl)cc1F [Example 752] |  | 8.41 nM | 6.96 nM |  |
| COc1cnc(Cl)c(-c2cc3[nH]c(=O)n(-c4cncc5cccc(F)c45)c(=O)c3s2)c1 [Example 760] |  | 93.7 nM | 15.6 nM |  |
| Cc1ccc2cncc(-n3c(=O)c4sc(-c5ccccc5Cl)cc4n(CCC#N)c3=O)c2n1 [Example 907] |  | 6.97 nM | 5.81 nM |  |
| N#CCCn1c(=O)n(-c2cncc3ccccc23)c(=O)c2sc(-c3ccccc3C#N)cc21 (single isomer, unassigned) [Example 963, 2-(1-(2-cyanoethyl)-3-(isoquinolin-4-yl)-2,4-dioxo-1,2,3,4-tetrahydrothieno[3,2-d]pyrimidin-6-yl)benzonitrile] |  |  | 7.92 nM | EC50 ([2]; read-out: MPro EC50): 14.6 nM |
| COc1cc(-c2cc3c(s2)c(=O)n(-c2cncc4nc(C(F)F)n(C)c24)c(=O)n3CCC#N)c(Cl)cc1F [Example 954] |  | 26 nM | 14.5 nM |  |
| COc1cccc(C)c1-c1ccc2c(=O)n(-c3cncc4ccccc34)c(=O)[nH]c2c1 [Example 89] | 860 nM | 881 nM |  |  |
| COc1cnc(Cl)c(-c2cc3c(s2)c(=O)n(-c2cncc4cnn(C)c24)c(=O)n3CCC#N)c1 [Example 1019, 3-(6-(2-chloro-5-methoxypyridin-3-yl)-3-(1-methyl-1H-pyrazolo[4,3-c]pyridin-7-yl)-2,4-dioxo-3,4-dihydrothieno[3,2-d]pyrimidin-1(2H)-yl)propanenitrile] |  | 16.3 nM | 8.48 nM |  |
| COc1cc(Cl)c(-c2cc3[nH]c(=O)n(-c4cncc5ccccc45)c(=O)c3s2)cc1OC [Example 343] | 4.02 nM | 7.79 nM |  |  |
| COCCn1ncc2cncc(-n3c(=O)c4sc(-c5cc(OC)c(F)cc5Cl)cc4n(CCC#N)c3=O)c21 [Example 912] |  | 4.36 nM | 4.9 nM |  |
| COc1cnc(Cl)c(-c2cc3c(s2)c(=O)n(-c2cncc4cccc(F)c24)c(=O)n3CCC#N)c1 (single isomer, unassigned) [Example 1095, 3-(6-(2-chloro-5-methoxypyridin-3-yl)-3-(5-fluoroisoquinolin-4-yl)-2,4-dioxo-3,4-dihydrothieno[3,2-d]pyrimidin-1(2H)-yl)propanenitrile] |  |  | 55.6 nM | EC50 ([2]; read-out: MPro EC50): 123 nM |
| COc1cc(-c2cc3c(s2)c(=O)n(-c2cncc4ccncc24)c(=O)n3CCC#N)c(Cl)cc1F [Example 923, 3-[6-(2-chloro-4-fluoro-5-methoxy-phenyl)-3-(2,6-naphthyridin-4-yl)-2,4-dioxo-thieno[3,2-d]pyrimidin-1-yl]propanenitrile] |  | 2 nM | 4.3 nM |  |
| COc1cc(-c2cc3[nH]c(=O)n(-c4cncc5cccc(F)c45)c(=O)c3s2)c(C#N)cc1F [Example 762] |  | 20.3 nM | 7.21 nM |  |
| COc1cc(-c2cc3[nH]c(=O)n(-c4cncc5ccccc45)c(=O)c3cc2F)c(Cl)cc1F (single isomer, unassigned) [Example 1006, 7-(2-chloro-4-fluoro-5-methoxy-phenyl)-6-fluoro-3-(4-isoquinolyl)-1H-quinazoline-2,4-dione] |  |  |  | IC50 ([1]; MPro IC50, recombinant SARS-CoV-2 Mpro 7.5 nM, fluorogenic peptide substrate 40 μM): 23.8 nM; EC50 ([2]; read-out: MPro EC50): 9.33 nM |
| COc1cc(-c2cc3[nH]c(=O)n(-c4cncc5cccc(C)c45)c(=O)c3s2)c(Cl)cc1F (single isomer, unassigned) [Example 996, 6-(2-chloro-4-fluoro-5-methoxyphenyl)-3-(5-methylisoquinolin-4-yl)thieno[3,2-d]pyrimidine-2,4(1H,3H)-dione] |  |  | 6390 nM | EC50 ([2]; read-out: MPro EC50): 1530 nM |
| COc1cc(-c2cc3[nH]c(=O)n(-c4cncc5cccc(F)c45)c(=O)c3cc2OC)c(C#N)cc1F [Example 682] |  | 33 nM | 20.2 nM |  |
| COc1cnc(C#N)c(-c2cc3[nH]c(=O)n(-c4cncc5ccccc45)c(=O)c3s2)c1 [Example 541] |  | 237 nM | 17.6 nM |  |
| O=c1[nH]c2cc(-c3c(Cl)cccc3-c3ccc4c(c3)OC(F)(F)O4)sc2c(=O)n1-c1cncc2ccccc12 [Example 353] | 143 nM | 31.5 nM |  |  |

| SMILES | IC50 [1, 3] | EC50 [2, 4] | IC50 [1, 6] | other results |
| --- | --- | --- | --- | --- |
| CN1CCN(c2ccc3cncc(-n4c(=O)[nH]c5cc(-c6ccccc6Cl)sc5c4=O)c3c2)CC1 [Example 400] |  | 6.07 nM | 6.04 nM |  |
| COc1cc(-c2ccc3c(=O)n(-c4cncc5ccccc45)c(=O)[nH]c3c2)c(Cl)cc1C [Example 250] | 1210 nM | 460 nM |  |  |
| COc1cc(-c2cc3[nH]c(=O)n(-c4cncc5ccccc45)c(=O)c3s2)c(C#N)cn1 [Example 542] |  | 1200 nM | 249 nM |  |
| Cc1cccc(C#N)c1-c1ccc2c(=O)n(-c3cncc4ccccc34)c(=O)[nH]c2c1 [Example 96] | 151 nM | 296 nM |  |  |
| Cc1cn(C)nc1-c1cccc(Cl)c1-c1cc2[nH]c(=O)n(-c3cncc4ccccc34)c(=O)c2s1 [Example 519] |  | 31.6 nM | 10.9 nM |  |
| COc1ccc(C#N)c(-c2cc3[nH]c(=O)n(-c4cncc5cnn(C)c45)c(=O)c3s2)c1 [Example 506] |  | 99.5 nM | 19.6 nM |  |
| N#CCCn1c(=O)n(-c2cncc(OC(F)F)c2)c(=O)c2sc(-c3ccccc3C#N)cc21 [Example 816] |  |  | 58.1 nM | EC50 [2, 5]: 342 nM |
| Cn1cnc2cncc(-n3c(=O)c4sc(-c5ccccc5C#N)cc4n(CCC#N)c3=O)c21 [Example 844] |  |  | 65.6 nM | EC50 [2, 5]: > 1000 nM |
| COc1cc(-c2cc3[nH]c(=O)n(-c4cncc5cnn(C)c45)c(=O)c3s2)c(Cl)cc1Cl [Example 667] |  | 18.7 nM | 14 nM |  |
| COc1cc(-c2cc3c(s2)c(=O)n(-c2cnccc2C)c(=O)n3CCC#N)c(Cl)cc1F (single isomer, unassigned) [Example 1031, 3-[6-(2-chloro-4-fluoro-5-methoxy-phenyl)-3-(4-methyl-3-pyridyl)-2,4-dioxo-thieno[3,2-d]pyrimidin-1-yl]propanenitrile] |  |  | 45.6 nM | EC50 ([2]; read-out: MPro EC50): 75.3 nM |
| COc1ccc(Cl)c(-c2ccc3c(=O)n(-c4cncc5ccc(N6CC7(CCOC7)C6)cc45)c(=O)[nH]c3c2)c1 [Example 410] |  |  | 12.8 nM | EC50 [2, 5]: 58.6 nM |
| O=c1[nH]c2cc(-c3ccc(F)cc3Cl)ccc2c(=O)n1-c1cncc2ccccc12 [Example 183] | 585 nM | 354 nM |  |  |
| CCc1ccncc1-n1c(=O)[nH]c2cc(-c3ccccc3Cl)ccc2c1=O [Example 124] | 948 nM | 2220 nM |  |  |
| Cn1ncc2cncc(-n3c(=O)c4sc(-c5cc(F)c(F)cc5Cl)cc4n(CCC#N)c3=O)c21 (single isomer, unassigned) [Example 1076, 3-[6-(2-chloro-4,5-difluoro-phenyl)-3-(1-methylpyrazolo[4,3-c]pyridin-7-yl)-2,4-dioxo-thieno[3,2-d]pyrimidin-1-yl]propanenitrile] |  |  | 3.64 nM | EC50 ([2]; read-out: MPro EC50): 10.9 nM |
| CCOc1ccc(Cl)c(-c2cc3[nH]c(=O)n(-c4cncc5ccccc45)c(=O)c3s2)c1 [Example 345] | 14.7 nM | 61.8 nM |  |  |
| N#CCCn1c(=O)n(-c2cncc3ccccc23)c(=O)c2sc(-c3ccccc3C#N)cc21 [Example 819, 2-(1-(2-cyanoethyl)-3-(isoquinolin-4-yl)-2,4-dioxo-1,2,3,4-tetrahydrothieno[3,2-d]pyrimidin-6-yl)benzonitrile] |  | 11.3 nM | 10.3 nM |  |
| O=c1[nH]c2cc(-c3cc(OC(F)F)ccc3Cl)ccc2c(=O)n1-c1cncc2ccccc12 [Example 330] | 326 nM | 212 nM |  |  |
| COc1ccc2cncc(-n3c(=O)[nH]c4cc(-c5ccccc5Cl)sc4c3=O)c2n1 [Example 449, 6-(2-chlorophenyl)-3-(2-methoxy-1,6-naphthyridin-8-yl)thieno[3,2-d]pyrimidine-2,4(1H,3H)-dione] |  | 29.2 nM | 14 nM |  |
| O=c1[nH]c2cc(-c3c(Cl)cccc3-c3cccnc3)ccc2c(=O)n1-c1cncc2ccccc12 [Example 187] | 29.4 nM | 17.6 nM |  |  |
| COCCn1cc2cncc(-n3c(=O)[nH]c4cc(-c5cc(OC)c(F)cc5Cl)sc4c3=O)c2n1 [Example 735] |  | 71 nM | 6.65 nM |  |
| O=c1[nH]c2cc(-c3cccc4ccccc34)ccc2c(=O)n1-c1cncc2ccccc12 [Example 26] | 40100 nM | 47900 nM |  |  |
| O=c1[nH]c2cc(-c3c(Cl)cccc3-c3ccncc3)ccc2c(=O)n1-c1cncc2ccccc12 [Example 329] | 9.77 nM | 22.3 nM |  |  |

Source: US20240116946A1 (Gilead Sciences, Inc., priority 2022, published 2024)
